We go through two molecules from patent publication US5633230A, “Treatment of cytomegalovirus infection” (priority 1994, dated 1997).

Where only a bound is given, the exact number is not on record here.

Series [1] concerns CMV strain 759^r D100. Put plainly: plaque reduction assay, ganciclovir-resistant strain 759^r D100. In kind it is cell-based, human CMV. The note with it: Human betaherpesvirus 5, MRC5. The method, then: (§1) The anti-CMV activity of peptide AV-9 was evaluated against two ganciclovir-resistant and two foscarnet-resistant laboratory strains of human CMV in the continuous, human embryonic lung cell line MRC-5.
(§2) To perform the studies, peptide AV-9 was dissolved as a solid in sterile, deionized water to a final stock concentration of 10 mM. This stock solution was subsequently diluted in cell culture medium to obtain the test concentrations used in the study. Ganciclovir (GCV) was dissolved in sterile, deionized water, and the drug concentration measured spectrophotometrically (7.8mM). Foscarnet (phosphonoformic acid, PFA) was dissolved in sterile, deionized water to a final concentration of 100 mM. Aliquots of the stock solutions were stored at -70° C.
(§3) Drug-resistant human CMV strains 759^r D100, GDG^r K17, PFA^r D100 and PFA^r B300 were obtained from Dr. Donald M. Coen, Harvard Medical School, Boston, Mass. […]
(§4) Anti-CMV activity of peptide AV-9, ganciclovir (GCV) and foscarnet (PFA) was assessed by standard plaque reduction assay using 24-well microtiter plates. […]
(§5) MRC-5 cells (4-5×10^5 per well) were grown for 24 hours at 37° C. in 5% CO2 atmosphere in D-MEM/F-12FBS medium containing varying concentrations of drug. […] Vital plaques were counted under a microscope after removing the culture medium from the wells, staining the cells with 1.1% Crystal Violet solution, and washing twice with tap water. […]

A short description of series [2]: toxicity control mice, immunosuppressed, uninfected.
Procedure: The mice were immunosuppressed by intraperitoneal (i.p.) injection with 100 mg/kg/day of cyclophosphamide administered on days -1, +3, +6, +10, +14 and +18 relative to virus inoculation. […] In a second portion of the study, the compound was administered i.p. in a dose of 0.1 mg/kg/day once daily from day -2 through +10. Ganciclovir in a dose of 50 mg/kg/day was injected i.p. once daily for 10 days beginning 24 hr post-virus exposure (days +1→+10). A total of 15 infected mice/dose were used. […] Five toxicity control mice were used at each dose; these mice were treated in parallel with the infected mice, and were weighed on the initial day of treatment and again 24 after the final treatment. […] Normal controls were weighed and held in parallel with the toxicity controls.
Series [3] deals with CMV strain GDG^r K17. Put plainly: plaque reduction assay, ganciclovir-resistant strain GDG^r K17. In kind it is cell-based, human CMV. The note with it: Human betaherpesvirus 5, MRC5. The method, then: as §1, §2, §3, §4, §5
Background: In a plaque reduction assay, fewer plaques than in the control indicate reduced infectivity or spread.

The subject of series [4] is Smith strain of murine CMV. Put plainly: murine CMV infection in cyclophosphamide-immunosuppressed mice. The series is classed as in vivo, BALB/c mice. The text has this: This immunosuppression model mimics the human patient situation, wherein the HCMV-induced disease in immunosuppressed individuals can often be fatal. The particular model used for evaluating potential antiviral activity has been described by Smee et al in J. Infect. Dis., 1991, 164: 958.
The Smith strain of murine CMV, obtained originally from the American Type Culture Collection (Rockville, Md.) was used. A mouse salivary gland preparation was used for the virus pool. An inoculation of 2×10^4 plaque forming units of the virus was used in the antiviral study. Female BALB/c mice weighing 10-12 g were quarantined 24 hr prior to use, and maintained on Wayne Lab Blox and tap water ad libitum the duration of the study.
Ganciclovir (DHPG) was purchased from a commercial source, and cyclophosphamide was purchased from Sigma Chemical Co. (St. Louis, Mo.).
To determine tissue virus titre, homogenates of infected mouse organs were titrated for virus using C127/I cells in 96-well microplates. Each tissue sample was homogenized and titrated separately with 3 micro wells used per dilution; plates were read by microscopic examination for viral-induced cytopathic effect, with 50% end points determined by the Reed-Muench method. Mean viral titers were expressed at 50% cell culture infectious doses (CCID50)/gram of tissue.
For statistical evaluation, increases in mean day to death and reductions in viral titers were assessed using the two-tailed Mann-Whitney U test. Total survivor increases were evaluated by chi square analysis with Yates'.

The subject of series [5] is CMV strain AD-169. Put plainly: plaque reduction assay, CMV AD-169 in HFF cells. The series is classed as cell-based, human CMV. The note with it: Human betaherpesvirus 5, AD169, CMV AD-169, HFF. The method, then:
(§6) The following procedures were then used to determine inhibitory effects of AV-9 on the replication of CMV. […] This was accomplished by diluting the stock peptide solution in growth medium (10% fetal bovine serum and 10 μg/ml gentamicin in Dulbecco's MEM (DMEM)) used to overlay the monolayers.
[…] Virus was then allowed to adsorb for 1 hour at 37° C. The virus inoculum was removed and the monolayers were overlayed with DMEM containing 2% FBS, 10 ug/ml gentamicin and a specified concentration of AV-9. Virus was next allowed to replicate for 7 to 10 days until the plaques were judged to be well developed, and then the monolayers were fixed and stained with a solution of 1% crystal violet in 1% formaldehyde,70% ethanol. Finally, plaques (each representing a single viable virion) were counted and checked microscopically.
(§7) In a like manner, plaque reduction assays were also performed against other CMV strains and another CMV host, with comparison against ganciclovir (GCV) and foscarnet (FCV).

The subject of series [6] is CMV strain AD-169. Briefly: CPE assay, CMV AD-169 in HFF cells. The series is classed as cell-based. The settings on record: Human betaherpesvirus 5, AD169, CMV AD-169, HFF (human foreskin fibroblast), without 24 h drug pretreatment. The text has this:
*CPE assay, all others are plaque reduction assays.

Series [7] has as its system CMV strain AD-169. Briefly: plaque reduction assay, CMV AD-169 in MRC-5 cells. In kind it is cell-based, human CMV. The note with it: Human betaherpesvirus 5, AD169, MRC5, CMV AD-169, MRC-5 (human embryonic lung), 24 h drug pretreatment. On the procedure:
as §6
After pretreatment with AV-9, the monolayers were overlaid with 0.1 ml log10 dilutions of virus (CMV strain AD-169) ranging from 10^-1 to 10^-6. Virus was then allowed to adsorb for 1 hour at 37° C. The virus inoculum was removed and the monolayers were overlayed with DMEM containing 2% FBS, 10 ug/ml gentamicin and a specified concentration of AV-9. Virus was next allowed to replicate for 7 to 10 days until the plaques were judged to be well developed, and then the monolayers were fixed and stained with a solution of 1% crystal violet in 1% formaldehyde,70% ethanol. Finally, plaques (each representing a single viable virion) were counted and checked microscopically.
as §7

In series [8] the test system is CMV strain PFA^r B300. Put plainly: plaque reduction assay, foscarnet-resistant strain PFA^r B300. In kind it is cell-based, human CMV. The settings on record: Human betaherpesvirus 5, MRC5. On the procedure: as §1, §2, §3, §4, §5
For series [9], the system named is CMV strain PFA^r D100. Briefly: plaque reduction assay, foscarnet-resistant strain PFA^r D100. The settings on record: Human betaherpesvirus 5, MRC5. The series is classed as cell-based, human CMV. The method, then:
as §1, §2, §3, §4, §5

Where [10] appears, read: 50 mg/kg/day i.p. days +1 to +10, 9 days after virus challenge.

Consider `Nc1nc2c(ncn2COC(CO)CO)c(=O)[nH]1` [GCV, 9-[(1,3-dihydroxy-2-propoxy)methyl]guanine, reference compound], for which the IC50 (as a rule, the concentration that inhibits the measured activity by half) in series [1] amounted to 30.5 µM; in [3], 6.1 µM; in series [5], 2 µM; in series [6], 5.8 µM. Further, in series [2] (50 mg/kg/day i.p. days +1 to +10, start of treatment to 24 hr after final treatment), the “Mean Body Weight Change” value stood at 4.2 g. Also, the Surv/Total in [2] (toxicity controls, 50 mg/kg/day i.p., days +1 through +10) is listed as 5/5; in series [4] (infected mice, 50 mg/kg/day i.p., days +1 through +10), 0/10. Besides, in series [4] (50 mg/kg/day i.p. days +1 to +10), the “days after initiation of infection until first deaths” value is on record as at least 21 days. Besides, in series [4] (setting [10]), the “Tissue Virus Titer ± S.D., Lung” value is 0 ± 0.0 log10 CCID50/g. Besides, in series [4] (setting [10]), the “Tissue Virus Titer ± S.D., Salivary Gland” value worked out at 3.5 ± 0.9 log10 CCID50/g. Moreover, the “Tissue Virus Titer ± S.D., Spleen” value in series [4] (setting [10]) was found to be 0.5 ± 1.2 log10 CCID50/g. Also, in series [4] (infected mice, 50 mg/kg/day i.p., days +1 through +10, P<0.01 vs saline), the “Mean Day to Death ± S.D.” value was determined as 22.9 ± 1.1 days.

Consider `O=C(O)P(=O)(O)O` [FCV, phosphonoformic acid], for which the IC50 in series [7] came out at 96 µM; in [8], 385 µM; in series [9] it was 234 µM.
